Legend:
[1] = target: T1, OmpLA (Escherichia coli, UniProt P0A921); assay: free fatty acid release by ANS displacement from BSA (fluorescence); assay type: biochemical; conditions: DMPG proteoliposomes, CaCl2 added to start, 30 °C
T1 construct: gene pldA; functional dimer, needs divalent cation

[2] = target: T2, PagP (Escherichia coli, UniProt P37001); assay: colorimetric release of 4-nitrophenol, A410; assay type: biochemical; conditions: DMPG proteoliposomes, pH 8.5, 2 M urea, room temperature; substrate delivered with methyl-beta-cyclodextrin
T2 sequence (P37001 26-186): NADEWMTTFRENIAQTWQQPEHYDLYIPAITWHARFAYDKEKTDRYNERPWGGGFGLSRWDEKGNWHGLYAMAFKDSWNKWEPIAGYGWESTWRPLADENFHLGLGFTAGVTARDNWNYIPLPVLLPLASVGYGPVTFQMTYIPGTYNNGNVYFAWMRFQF

T1 sequence (P0A921 21-289): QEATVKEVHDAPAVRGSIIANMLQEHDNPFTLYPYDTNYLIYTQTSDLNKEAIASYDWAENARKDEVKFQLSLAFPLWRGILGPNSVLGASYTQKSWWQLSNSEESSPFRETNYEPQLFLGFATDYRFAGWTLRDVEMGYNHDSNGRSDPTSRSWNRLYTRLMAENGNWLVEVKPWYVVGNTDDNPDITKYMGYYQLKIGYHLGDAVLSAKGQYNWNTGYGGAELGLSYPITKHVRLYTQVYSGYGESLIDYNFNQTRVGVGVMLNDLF

Row | Structure (SMILES) | free fatty acid release by ANS displacement from BSA (fluorescence) [1] | colorimetric release of 4-nitrophenol, A410 [2]
1 | CCCCCCCCCCCCCC(=O)OC[C@H](COP(=O)(O)OCC(O)CO)OC(=O)CCCCCCCCCCCCC (some centres unmarked) [DMPG] | the phospholipase activity of OmpLA was measured in DMPG proteoliposomes | 
2 | CCCCCCCCCCCCCCCC(=O)Oc1ccc([N+](=O)[O-])cc1 [palmitate-4-nitrophenol] |  | MβCD facilitates the rapid delivery of the pNP PagP substrate into liposome bilayers

— article PMC7617971, “OmpA Specifically Modulates the Activity of Enzymes that Reside in the Crowded Bacterial Outer Membrane” (Journal of molecular biology, 2025)
